Source: patent publication US6281209A, “Fungicidal alkoximinomethyldioxazine derivatives” (Bayer Aktiengesellschaft, priority 1997, dated 2001)
Where two headings read alike, the source gives them in different places.

Experiments:
[1] = phys. data (logP), Table 1; format: physicochemical
Plasmopara viticola = assay: Plasmopara Test (Grapevine)/Protective; format: in vivo; settings: protective, 100 g/ha, evaluated 6 days after inoculation
Procedure: Plasmopara Test (Grapevine)/Protective Solvent: 47 parts by weight of acetone Emulsifier: 3 parts by weight of alkylaryl polyglycol ether To produce a suitable preparation of active compound, 1 part by weight of active compound is mixed with the stated amounts of solvent and emulsifier, and the concentrate is diluted with water to the desired concentration. To test for protective activity, the young plants are sprayed with the preparation of active compound at the stated application rate. After the spray coating has dried on, the plants are inoculated with an aqueous spore suspension of Plasmopara viticola and then remain in an incubation cabin at approximately 20° C. and 100% relative atmospheric humidity for 1 day. The plants are subsequently placed in a greenhouse at approximately 21° C. and approximately 90% relative atmospheric humidity for 5 days. The plants are then moistened and placed in an incubation cabin for 1 day.

Venturia inaequalis = assay: Venturia Test (Apple)/Protective; format: in vivo; settings: protective, 10 g/ha, evaluated 12 days after inoculation
Procedure: Venturia Test (Apple)/Protective Solvent: 47 parts by weight of acetone Emulsifier: 3 parts by weight of alkylaryl polyglycol ether To produce a suitable preparation of active compound, 1 part by weight of active compound is mixed with the stated amounts of solvent and emulsifier, and the concentrate is diluted with water to the desired concentration. To test for protective activity, young plants are sprayed with the preparation of active compound at the stated application rate. After the spray coating has dried on, the plants are inoculated with an aqueous conidia suspension of the causative organism of apple scab Venturia inaequalis and then remain in an incubation cabin at approximately 20° C. 100% relative atmospheric humidity for 1 day. The plants are then placed in the greenhouse at approximately 21° C. and a relative atmospheric humidity of approximately 90%.

Pyricularia oryzae = format: in vivo; settings: rice, protective, 750 g/ha, contact time of one day, evaluated 4 days after inoculation
Leptosphaeria nodorum = assay: Leptosphaeria Nodorum Test (Wheat)/Protective; format: in vivo; settings: protective, 25 g/ha, evaluated 10 days after inoculation
Procedure: Leptosphaeria Nodorum Test (Wheat)/Protective Solvent: 10 parts by weight of N-methyl-pyrrolidone Emulsifier: 0.6 parts by weight of alkylaryl polyglycol ether To produce a suitable preparation of active compound, 1 part by weight of active compound is mixed with the stated amounts of solvent and emulsifier, and the concentrate is diluted with water to the desired concentration. To test for protective activity, young plants are sprayed with the preparation of active compound at the stated application rate. After the spray coating has dried on, the plants are sprayed with a spore suspension of Leptosphaeria nodorum. The plants remain in an incubation cabin at 20° C. and 100% relative atmospheric humidity for 48 hours.

CCOc1ccccc1C(C)=CC(=O)Oc1ccccc1C(=NOC)C1=NOCCO1 [Example 25]
logP ([1]; read-out: logP): 3.63

CON=C(C1=NOCCO1)c1ccccc1OC(=O)C=C(C)c1cccc(C)c1 [Example 17]
logP ([1]; read-out: logP): 3.58

CCc1cccc(C(C)=CC(=O)Oc2ccccc2C(=NOC)C2=NOCCO2)c1 [Example 9]
logP ([1]; read-out: logP): 3.91 | efficacy in comparison with the untreated control (Plasmopara viticola): up to 100% | efficacy in comparison with the untreated controls (Venturia inaequalis): up to 100% | efficacy in comparison with the untreated control (Pyricularia oryzae): more than 80%

CON=C(C1=NOCCO1)c1ccccc1OC(=O)C=C(C)c1ccc(C)cc1 [Example 13]
logP [1]: 4.06

CCCOc1ccccc1C(C)=CC(=O)Oc1ccccc1C(=NOC)C1=NOCCO1 [Example 26]
logP ([1]; read-out: logP): 3.98

CON=C(C1=NOCCO1)c1ccccc1OC(=O)C=C(C)c1ccccc1Br [Example 45]
logP ([1]; read-out: logP): 3.58

CON=C(C1=NOCCO1)c1ccccc1OC(=O)C=C(C)c1ccccc1C(F)(F)F [Example 43]
logP ([1]; read-out: logP): 3.58

CON=C(C1=NOCC(C)O1)c1ccccc1OC(=O)C=C(C)c1ccc(C(F)(F)F)cc1 (stereo not drawn) [Example 22]
logP ([1]; read-out: logP): 4.02

CON=C(C1=NOCC(C)(C)O1)c1ccccc1OC(=O)C=C(C)c1ccc(C(F)(F)F)cc1 [Example 23]
logP ([1]; read-out: logP): 4.23

CON=C(C1=NOCCO1)c1ccccc1OC(=O)C=C(C)COc1cccc(C(F)(F)F)c1 [Example 3]
efficacy in comparison with the untreated control (Pyricularia oryzae): more than 80%

CON=C(C1=NOCCO1)c1ccccc1OC(=O)C=C(C)c1cccc(Br)c1 [Example 4]
logP ([1]; read-out: logP): 3.72 | efficacy in comparison with the untreated control (Plasmopara viticola): up to 100% | efficacy in comparison with the untreated controls (Venturia inaequalis): up to 100% | efficacy in comparison with the untreated control (Leptosphaeria nodorum): 70%

CON=C(C1=NOCCO1)c1ccccc1OC(=O)C=C(C)c1ccccc1OC(C)C [Example 24]
logP ([1]; read-out: logP): 3.87

CON=C(C1=NOCCO1)c1ccccc1OC(=O)C=C(C)c1cccc(Cl)c1 [Example 19]
logP ([1]; read-out: logP): 3.64

CON=C(C1=NOCCO1)c1ccccc1OC(=O)C=C(C)c1ccccc1C [Example 47]
logP ([1]; read-out: logP): 3.48

CON=C(C1=NOCCO1)c1ccccc1OC(=O)C=C(C)c1ccccc1 [Example 6]
logP ([1]; read-out: logP): 3.22 | efficacy in comparison with the untreated control (Plasmopara viticola): up to 100% | efficacy in comparison with the untreated controls (Venturia inaequalis): up to 100%

CON=C(C1=NOCCO1)c1ccccc1OC(=O)C=C(C)c1ccc(Br)cc1 [Example 10]
logP ([1]; read-out: logP): 3.78

CON=C(C1=NOCCO1)c1ccccc1OC(=O)C=C(C)c1ccc(F)cc1 [Example 20]
logP ([1]; read-out: logP): 3.28

CON=C(C1=NOCCO1)c1ccccc1OC(=O)C=C(C)c1cc(Cl)ccc1Cl [Example 14]
logP ([1]; read-out: logP): 3.93

CON=C(C1=NOCCO1)c1ccccc1OC(=O)C=C(C)c1ccc(OC)cc1 [Example 21]
logP ([1]; read-out: logP): 3.19

CON=C(C1=NOCCO1)c1ccccc1OC(=O)C=C(C)c1cccc(OC)c1 [Example 5]
logP ([1]; read-out: logP): 3.22 | efficacy in comparison with the untreated control (Plasmopara viticola): up to 100% | efficacy in comparison with the untreated controls (Venturia inaequalis): up to 100%

CON=C(C1=NOCCO1)c1ccccc1OC(=O)C=C(C)c1ccc(C(F)(F)F)cc1 [Example 7]
logP ([1]; read-out: logP): 3.81 | efficacy in comparison with the untreated controls (Venturia inaequalis): up to 100% | efficacy in comparison with the untreated control (Pyricularia oryzae): more than 80%

CON=C(C1=NOCCO1)c1ccccc1OC(=O)C=C(C)c1ccccc1F [Example 29]
logP ([1]; read-out: logP): 3.25

CON=C(C1=NOCCO1)c1ccccc1OC(=O)C=C(C)c1ccccc1OC [Example 42]
logP ([1]; read-out: logP): 3.28

CCOc1ccc(C(C)=CC(=O)Oc2ccccc2C(=NOC)C2=NOCCO2)cc1 [Example 12]
logP ([1]; read-out: logP): 3.57

CON=C(C1=NOCCO1)c1ccccc1OC(=O)C=C(C)c1cccc(C(F)(F)F)c1 [Example 1, 2-[(5,6-dihydro-[1,4,2]dioxazin-3-yl)-methoxyiminomethyl]-phenyl 3-(3-trifluoromethylphenyl)-but-2-enoate]
efficacy in comparison with the untreated control (Plasmopara viticola): up to 100% | efficacy in comparison with the untreated controls (Venturia inaequalis): up to 100%

CON=C(C1=NOCCO1)c1ccccc1OC(=O)C=C(C)c1cc(C)ccc1C [Example 44]
logP ([1]; read-out: logP): 3.85

CON=C(C1=NOCCO1)c1ccccc1OC(=O)C=C(C)c1ccc(C)cc1 [Example 8]
logP ([1]; read-out: logP): 3.58 | efficacy in comparison with the untreated control (Plasmopara viticola): up to 100% | efficacy in comparison with the untreated controls (Venturia inaequalis): up to 100% | efficacy in comparison with the untreated control (Pyricularia oryzae): more than 80%

CON=C(C1=NOCCO1)c1ccccc1OC(=O)C=C(C)c1ccc(Cl)nc1 [Example 46]
logP ([1]; read-out: logP): 2.75

CON=C(C1=NOCCO1)c1cc(C)ccc1OC(=O)C=C(C)c1cccc(Cl)c1 [Example 32]
logP ([1]; read-out: logP): 3.9
